Measurements from US12139477B2, “Compounds, salts thereof and methods for treatment of diseases” (ACADIA PHARMACEUTICALS INC., priority 2017, dated 2024).

Assays:
[1] = biological target: T1, hERG channel (Homo sapiens, UniProt Q12809); assay: hERG assay, whole cell recordings in CHO cells (AVIVA); type: cell-based; conditions: CHO cells stably expressing hERG, pH 7.4
T1 construct: host or cells: CHO cells, stably transfected
Procedure, shortened: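 Whole-cell voltage clamp of CHO cells stably expressing hERG, held at −80 mV; steps to +20 mV for 5 s, then −50 mV for 5 s, with tail current measured against a −50 mV baseline, every 12 s. Compounds applied in 4 additions until steady state (max 12 min), vs 0.1% DMSO vehicle baseline.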

[2] = biological target: hERG potassium channel (Homo sapiens, UniProt Q12809); assay: hERG manual patch clamp, HEK293 cells (CR-CLE)
Procedure: Each cell acted as its own control.
Temperature was measured using a thermistor probe in the recording chamber.

[3] = biological target: hCav1.2/β2/α2δ channels (Homo sapiens, UniProt Q13936); assay: CaV1.2 manual patch clamp, CHO cells (CR-CLE); type: cell-based; conditions: manual patch clamp, room temperature, read-out: CaV 1.2 IC50
From the text: Stocks were maintained in cryogenic storage. […] Each culture dish was identified by a notation of channel name, passage number, and date.
Rationale for Selection of Ion Channel and Expression Systems: Reduction of ICa,L is associated with action potential shortening in atrial fibrillation (Van Wagoner, et al., Circ Res 85:428-436 (1999)) while augmentation of ICa,L current may produce action potential prolongation (Ahmmed, et al., Circ Res 86:558-570 (2000)) and early after depolarizations (January, et al., Circ Res 62:563-571 (1988)). ICa.L is produced by the combination of calcium channel subunits encoded by CACNA1C (α1-subunit), CACNB2 (β2-subunit) and CACNA2D1 (α2δ-subunit) cDNAs.
• Organism: Cricetulus griseus • Tissue: Ovary; transfected with human CACNA1C • (α1-subunit), CACNB2 (β2-subunit), and • CACNA2D1 (α2δ-subunit) cDNAs • Morphology: Epithelial • Age/Stage: Adult • Source Strain: ATCC, Manassas, VA • Source Substrain: CR-CLE
CHO Cell Culture Procedures: CHO cells were stably co-transfected with human CACNA1C (α1-subunit), CACNB2 (β2-subunit), and CACNA2D1 (α2δ-subunit) cDNAs. Stable transfectants were selected by coexpression of the cDNAs with antibiotic resistance genes for blasticidin, hygromycin, G418, and zeocin. Selection pressure was maintained by including these antibiotics in the culture medium. Cells were cultured in Ham's F12 Medium supplemented with 10% fetal bovine serum, penicillin-streptomycin (100 units/mL), blasticidin (10 μg/mL), zeocin (400 μg/mL), G418 (250 μg/mL) and hygromycin (250 μg/mL). To avoid Ca^2+-induced toxicity, verapamil (3 μmol/L) was added to the cultured cells.
hCav1.2/β2/α2δ-CHO is a tetracycline-inducible cell line. To induce expression, tetracycline at a final concentration of 1 μg/mL was added to media lacking the selection antibiotics. Currents were recorded greater than 16 hours post-induction.
Treatment Groups: All experiments were performed at room temperature. Each cell acted as its own control.
Each concentration was tested in at least three cells (n≥3).
Positive Control Group: The positive control article nifedipine (Sigma-Aldrich) was tested in two cells (n=2) at 0.1 μM. Previous results have shown that nifedipine at 0.1 μM inhibits hCav1.2 current by approximately 90%.
Electrophysiological Procedures: Cells were superfused with vehicle control solution. Micropipette solution for whole cell patch clamp recordings was composed of (mM): Cs-methanesulfonate (MES), 130; TEA-Cl, 20, MgCl2, 1; EGTA, 10; Mg-ATP, 4; Tris-GTP, 0.3, phosphocreatine di-(Tris) salt, 14, creatine phosphokinase, 50 U/mL, and HEPES, 10; pH adjusted to 7.2 with N-methyl-D-glucamine or CsOH. Micropipette solution was prepared in batches, aliquoted, stored frozen, and a fresh aliquot thawed each day. […] Before digitization, current records were low-pass filtered at one-fifth of the sampling frequency.
Experimental Procedures: Onset and steady inhibition was evaluated at a test potential of 0 mV (150 ms duration), repeated at ten-second intervals from a holding potential of −40 mV. Peak current was measured during the step to 0 mV. Peak current was monitored until a new steady state was achieved. hCav1.2 current was monitored until a new steady state was achieved and a steady state was maintained for at least 20 s before applying test article or positive control article formulations. […]
Nonlinear least squares fits were solved with the Solver add-in for Excel 2003 or later (Microsoft, Redmond, WA) and the IC50 was calculated.

hCav1.2/β2/α2δ channels, sequence (Q13936 whole entry): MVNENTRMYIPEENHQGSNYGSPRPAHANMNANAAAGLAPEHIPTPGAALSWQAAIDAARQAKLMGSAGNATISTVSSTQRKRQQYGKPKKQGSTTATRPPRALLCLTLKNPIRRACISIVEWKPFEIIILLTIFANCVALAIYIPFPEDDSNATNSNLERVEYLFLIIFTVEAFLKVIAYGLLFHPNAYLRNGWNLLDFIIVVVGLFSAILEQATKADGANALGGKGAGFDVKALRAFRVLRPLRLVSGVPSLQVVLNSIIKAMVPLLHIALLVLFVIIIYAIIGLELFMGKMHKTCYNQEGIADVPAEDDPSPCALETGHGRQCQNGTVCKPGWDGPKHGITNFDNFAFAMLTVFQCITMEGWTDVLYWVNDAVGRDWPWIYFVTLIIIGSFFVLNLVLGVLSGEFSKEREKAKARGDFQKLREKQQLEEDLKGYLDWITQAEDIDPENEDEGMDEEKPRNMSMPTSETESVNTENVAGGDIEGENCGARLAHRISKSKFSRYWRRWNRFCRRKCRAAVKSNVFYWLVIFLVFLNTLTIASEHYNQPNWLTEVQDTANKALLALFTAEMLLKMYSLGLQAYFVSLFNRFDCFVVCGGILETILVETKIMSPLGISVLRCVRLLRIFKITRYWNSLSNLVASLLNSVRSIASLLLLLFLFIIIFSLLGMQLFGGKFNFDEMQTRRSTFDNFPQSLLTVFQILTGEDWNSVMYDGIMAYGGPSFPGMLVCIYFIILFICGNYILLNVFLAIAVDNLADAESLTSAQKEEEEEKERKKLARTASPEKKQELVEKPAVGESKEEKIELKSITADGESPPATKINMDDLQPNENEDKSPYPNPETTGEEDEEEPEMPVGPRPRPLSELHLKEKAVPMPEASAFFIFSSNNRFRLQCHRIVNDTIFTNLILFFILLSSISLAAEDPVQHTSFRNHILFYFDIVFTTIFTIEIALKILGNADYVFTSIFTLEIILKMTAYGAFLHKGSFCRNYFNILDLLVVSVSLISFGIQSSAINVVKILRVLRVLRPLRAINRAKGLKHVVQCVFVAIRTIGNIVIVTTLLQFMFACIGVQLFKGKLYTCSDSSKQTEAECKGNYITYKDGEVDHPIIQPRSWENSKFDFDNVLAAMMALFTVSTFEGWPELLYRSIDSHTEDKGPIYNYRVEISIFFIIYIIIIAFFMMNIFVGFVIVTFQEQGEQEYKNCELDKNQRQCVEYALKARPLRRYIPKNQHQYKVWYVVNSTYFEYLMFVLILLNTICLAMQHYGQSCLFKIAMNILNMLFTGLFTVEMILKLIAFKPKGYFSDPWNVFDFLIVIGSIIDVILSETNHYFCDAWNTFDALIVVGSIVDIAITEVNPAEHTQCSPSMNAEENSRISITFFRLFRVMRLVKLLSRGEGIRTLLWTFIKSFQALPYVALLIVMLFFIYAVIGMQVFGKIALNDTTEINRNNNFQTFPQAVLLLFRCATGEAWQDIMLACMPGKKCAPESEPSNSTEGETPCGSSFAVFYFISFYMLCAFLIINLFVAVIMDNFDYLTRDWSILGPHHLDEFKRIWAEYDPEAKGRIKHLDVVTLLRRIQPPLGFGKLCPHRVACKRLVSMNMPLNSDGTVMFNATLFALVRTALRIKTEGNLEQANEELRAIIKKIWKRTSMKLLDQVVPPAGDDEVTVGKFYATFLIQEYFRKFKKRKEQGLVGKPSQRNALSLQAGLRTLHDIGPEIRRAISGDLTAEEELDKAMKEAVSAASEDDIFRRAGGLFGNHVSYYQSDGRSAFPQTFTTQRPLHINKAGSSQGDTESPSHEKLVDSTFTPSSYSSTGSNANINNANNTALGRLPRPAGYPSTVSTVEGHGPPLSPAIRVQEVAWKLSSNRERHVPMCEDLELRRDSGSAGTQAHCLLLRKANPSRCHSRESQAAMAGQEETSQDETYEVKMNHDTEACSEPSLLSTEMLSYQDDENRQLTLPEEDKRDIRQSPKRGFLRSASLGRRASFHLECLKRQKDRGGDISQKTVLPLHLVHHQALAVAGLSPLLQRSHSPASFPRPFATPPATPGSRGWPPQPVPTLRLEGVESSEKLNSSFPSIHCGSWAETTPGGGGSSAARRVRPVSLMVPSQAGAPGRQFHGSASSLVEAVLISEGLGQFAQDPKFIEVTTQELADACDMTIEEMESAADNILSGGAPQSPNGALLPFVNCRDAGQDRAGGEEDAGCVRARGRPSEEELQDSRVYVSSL
hCav1.2/β2/α2δ channels, sequence (Q08289 whole entry partner): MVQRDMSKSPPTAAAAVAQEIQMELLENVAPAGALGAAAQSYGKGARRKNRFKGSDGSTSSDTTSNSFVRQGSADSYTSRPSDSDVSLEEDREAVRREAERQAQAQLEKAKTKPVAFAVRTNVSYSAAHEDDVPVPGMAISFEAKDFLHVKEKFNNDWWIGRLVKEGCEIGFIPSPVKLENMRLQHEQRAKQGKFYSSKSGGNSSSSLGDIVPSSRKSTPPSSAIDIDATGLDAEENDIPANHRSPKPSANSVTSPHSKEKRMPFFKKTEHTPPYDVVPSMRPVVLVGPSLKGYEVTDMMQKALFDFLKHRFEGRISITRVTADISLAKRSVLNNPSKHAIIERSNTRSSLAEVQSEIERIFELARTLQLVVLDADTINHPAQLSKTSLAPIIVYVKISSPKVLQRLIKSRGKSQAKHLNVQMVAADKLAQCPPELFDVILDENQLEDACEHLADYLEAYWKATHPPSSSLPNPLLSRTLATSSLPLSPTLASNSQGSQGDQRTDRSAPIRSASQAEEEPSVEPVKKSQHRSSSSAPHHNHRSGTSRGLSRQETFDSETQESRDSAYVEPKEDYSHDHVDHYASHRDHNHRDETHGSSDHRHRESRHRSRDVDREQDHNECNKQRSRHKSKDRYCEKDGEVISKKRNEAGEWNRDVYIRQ
hCav1.2/β2/α2δ channels, sequence (P54289 25-956 partner limits assumed): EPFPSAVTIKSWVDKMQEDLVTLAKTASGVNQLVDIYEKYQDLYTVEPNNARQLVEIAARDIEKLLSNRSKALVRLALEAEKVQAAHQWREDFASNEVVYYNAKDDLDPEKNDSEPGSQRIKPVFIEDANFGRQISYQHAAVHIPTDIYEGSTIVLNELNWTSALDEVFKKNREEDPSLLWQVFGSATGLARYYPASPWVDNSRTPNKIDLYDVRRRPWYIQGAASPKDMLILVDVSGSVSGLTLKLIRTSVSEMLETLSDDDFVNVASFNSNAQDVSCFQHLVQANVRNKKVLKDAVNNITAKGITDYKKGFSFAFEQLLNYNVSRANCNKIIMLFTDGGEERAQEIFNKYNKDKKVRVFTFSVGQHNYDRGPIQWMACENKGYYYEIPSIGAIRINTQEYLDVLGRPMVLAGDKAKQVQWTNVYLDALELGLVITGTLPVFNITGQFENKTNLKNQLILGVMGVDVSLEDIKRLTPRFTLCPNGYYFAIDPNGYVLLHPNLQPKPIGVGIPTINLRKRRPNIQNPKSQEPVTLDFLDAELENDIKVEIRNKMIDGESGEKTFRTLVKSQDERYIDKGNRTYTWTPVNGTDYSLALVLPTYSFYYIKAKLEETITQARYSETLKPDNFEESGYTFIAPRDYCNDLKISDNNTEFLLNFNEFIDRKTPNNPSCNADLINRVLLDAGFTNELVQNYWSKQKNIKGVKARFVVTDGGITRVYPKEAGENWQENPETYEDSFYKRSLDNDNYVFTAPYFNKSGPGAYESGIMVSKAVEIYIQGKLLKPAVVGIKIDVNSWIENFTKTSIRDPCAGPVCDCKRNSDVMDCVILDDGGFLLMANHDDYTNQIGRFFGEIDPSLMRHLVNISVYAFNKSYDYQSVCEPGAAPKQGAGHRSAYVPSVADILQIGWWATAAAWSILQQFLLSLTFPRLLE
hCav1.2/β2/α2δ channels, sequence (P54289 957-1103 partner limits assumed): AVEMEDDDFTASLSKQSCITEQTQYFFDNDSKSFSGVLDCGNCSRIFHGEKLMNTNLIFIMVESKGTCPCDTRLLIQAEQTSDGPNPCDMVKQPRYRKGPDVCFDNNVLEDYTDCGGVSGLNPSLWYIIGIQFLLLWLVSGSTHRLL
T1 sequence (Q12809 whole entry): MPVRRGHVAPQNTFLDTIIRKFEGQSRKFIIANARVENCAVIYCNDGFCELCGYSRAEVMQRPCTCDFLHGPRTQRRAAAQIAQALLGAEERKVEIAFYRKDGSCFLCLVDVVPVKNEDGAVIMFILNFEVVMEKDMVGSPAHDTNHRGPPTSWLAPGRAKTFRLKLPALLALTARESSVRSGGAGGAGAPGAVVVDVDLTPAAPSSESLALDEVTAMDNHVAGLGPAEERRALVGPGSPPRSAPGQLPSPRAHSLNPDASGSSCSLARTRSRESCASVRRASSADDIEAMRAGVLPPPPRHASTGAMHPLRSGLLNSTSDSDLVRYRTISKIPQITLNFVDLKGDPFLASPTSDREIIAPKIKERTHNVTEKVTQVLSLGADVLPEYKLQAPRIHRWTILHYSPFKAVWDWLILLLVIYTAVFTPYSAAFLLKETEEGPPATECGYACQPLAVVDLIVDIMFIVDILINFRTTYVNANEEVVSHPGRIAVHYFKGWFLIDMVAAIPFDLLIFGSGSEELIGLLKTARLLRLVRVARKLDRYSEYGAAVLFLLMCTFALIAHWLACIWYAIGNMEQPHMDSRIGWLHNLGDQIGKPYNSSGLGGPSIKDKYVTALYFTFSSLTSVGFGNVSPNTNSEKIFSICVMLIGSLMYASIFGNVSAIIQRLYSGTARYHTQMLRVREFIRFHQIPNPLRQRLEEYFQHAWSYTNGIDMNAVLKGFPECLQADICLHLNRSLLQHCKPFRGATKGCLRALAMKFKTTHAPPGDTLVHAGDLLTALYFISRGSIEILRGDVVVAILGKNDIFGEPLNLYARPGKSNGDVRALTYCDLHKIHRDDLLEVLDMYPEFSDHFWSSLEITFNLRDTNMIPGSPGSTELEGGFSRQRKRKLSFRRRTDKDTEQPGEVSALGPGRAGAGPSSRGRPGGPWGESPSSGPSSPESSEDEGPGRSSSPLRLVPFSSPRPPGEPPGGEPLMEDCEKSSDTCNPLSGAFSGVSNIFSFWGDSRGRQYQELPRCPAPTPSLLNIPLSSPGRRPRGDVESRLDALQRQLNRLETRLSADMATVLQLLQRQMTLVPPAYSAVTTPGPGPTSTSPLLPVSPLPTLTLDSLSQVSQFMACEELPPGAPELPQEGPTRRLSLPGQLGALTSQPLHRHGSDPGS

| Structure (SMILES) | inhibition at 1 µM [1] [%] | IC50 [2] [µM] | IC50 [3] [µM] |
| --- | --- | --- | --- |
| CC(C)COc1ccc(CNC(=O)N(Cc2ccc(F)cc2F)C2CCN(C)CC2)cc1 [Example 3, 1-[(2,4-difluorophenyl)methyl]-1-(1-methylpiperidin-4-yl)-3-{[4-(2-methylpropoxy)phenyl]methyl}urea] | 33 | 0.5 | 1.4 |
| CC(C)Oc1ccc(CNC(=O)N(Cc2ccc(F)cc2F)C2CCN(C)CC2)cc1 [Example 5, 1-[(2,4-difluorophenyl)methyl]-1-(1-methylpiperidin-4-yl)-3-{[4-(propan-2-yloxy)phenyl]methyl}urea] | 29 | 1.8 | 11.3 |
| CN1CCC(N(Cc2ccc(F)cc2F)C(=O)NCc2ccc(OC3CC3)cc2)CC1 [Example 17, 3-[(4-cyclopropoxyphenyl)methyl]-1-[(2,4-difluorophenyl)methyl]-1-(1-methylpiperidin-4-yl)urea] | 32 | 1.8 | 3.5 |
